tested on: bilirubin oxidase; assay: Km value determination; type: biochemical, Penicillium janthinellum; details: 0.1 ml enzyme solution, 2-20 mg bilirubin substrate solutions

Compound	Km [µM]
C=CC1=C(C)/C(=C/c2[nH]c(Cc3[nH]c(/C=C4\NC(=O)C(C)=C4C=C)c(C)c3CCC(=O)O)c(CCC(=O)O)c2C)NC1=O [Bilirubin]	110

tested on: bilirubin oxidase; assay: not given; type: biochemical, Penicillium janthinellum; details: additive (metal ion, EDTA) 1 mM; activity without addition = 100; 10 min

Compound	Relative Acty. (relative enzyme activity with additive) [%]
[Cl][Mn][Cl] [MnCl2]	10
Cl.N [NH4 Cl]	108
[Cl][Pb][Cl] [PbCl2]	377
[N-]=[N+]=[N-].[Na+] [NaN3]	106
[Cl-].[K+] [KCl]	106
[Cl-].[Cl-].[Zn+2] [ZnCl2]	60
[Ba+2].[Cl-].[Cl-] [BaCl2]	49
[Cl][Al]([Cl])[Cl] [AlCl3]	88
Triazole	105
[Ca+2].[Cl-].[Cl-] [CaCl2]	31
[Cl][Fe]([Cl])[Cl] [FeCl3]	113
[Cl][Cu][Cl] [CuCL2]	0
[Cl][Ni][Cl] [NiCl2]	43
[Cl-].[Cs+] [CsCl]	139
[Cl-].[Cl-].[Mg+2] [MgCl2]	96
[Cl-].[Cl-].[Co+2] [CoCl2]	0

same assay, conditions: bilirubin oxidase, 10 min

Compound	Relative Acty. (relative enzyme activity with additive) [%]
CCCCCCCCCCCCCCCC[N+](C)(C)C.[Br-] [CTMB, Cetyl trimethylammonium bromide]	277
CCCCCCCCCCCCCCCC[N+](C)(C)C.[Cl-] [CTMC, Cetyl trimethylammonium chloride]	316

same assay, conditions: bilirubin oxidase, 10 min, 1000 µM

Compound	Relative Acty. (relative enzyme activity with additive) [%]
[Cl-].[Na+] [NaCl]	106
O=C(O)CN(CCN(CC(=O)O)CC(=O)O)CC(=O)O [EDTA]	102
[Cl-].[Li+] [LiCl]	112
NO [Hydroxylamine]	108

same assay, conditions: metal ion 1 mM or surfactant 0.05%

Compound	Effect of additive on enzyme activity (in words)
[Cl][Pb][Cl] [PbCl2]	accelerated considerably
[Cl][Hg][Cl] [HgCL2]	accelerated considerably
[Cl][Cu][Cl] [CuCL2]	inhibited
CCCCCCCCCCCCCCCC[N+](C)(C)C.[Cl-] [CTMC, Cetyl trimethylammonium chloride]	accelerated considerably
[Cl-].[Cl-].[Co+2] [CoCl2]	inhibited

tested on: bilirubin oxidase; assay: Substrate specificity by oxygen consumption rate (electrode oxygen meter); type: biochemical, Penicillium janthinellum; details: 0.1 mM substrate, 0.1 mM HgCl2 added
Protocol: The intrinsic substrate specificity for various substrates was estimated based upon the oxygen consumption rate using an electrode oxygen meter. The measurements were effected under an addition of HgCl2 to the substrate solution up to a concentration of 0.1 mM. For the measurements, 0.1 mM solution of the substrate with addition of 0.1 ml of the enzyme solution as employed in the determination of the enzyme activity was used. […] Thus, it was confirmed that the bilirubin oxidase according to the present invention has a very high specificity to bilirubin.

Compound	Relative Activity (substrate specificity) [%]
C=CC1=C(C)/C(=C/c2[nH]c(Cc3[nH]c(/C=C4\NC(=O)C(C)=C4C=C)c(C)c3CCC(=O)O)c(CCC(=O)O)c2C)NC1=O [Bilirubin]	100
Oc1ccccc1O [Catechol]	0
Chlorophyllin	0
C=CC1=C(C)/C(=C/C2=NC(=C\c3[nH]c(/C=C4\NC(=O)C(C)=C4C=C)c(C)c3CCC(=O)O)/C(CCC(=O)O)=C2C)NC1=O [Biliverdin]	0
Oc1ccc(O)cc1 [Hydroquinone]	0
Hemin	0
CC1=C(CCC(=O)O)c2cc3[nH]c(cc4nc(cc5[nH]c(cc1n2)c(C)c5C(C)O)C(C)=C4C(C)O)c(C)c3CCC(=O)O (stereo not shown) [Hematoporphyrin]	0
Chlorophyll	0
Oc1ccccc1 [Phenol]	0
Hemoglobin	0
Oc1cccc(O)c1O [Pyrogallol]	0
Cc1c(N)c(=O)n(-c2ccccc2)n1C [4-Aminoantipyrin]	0

Reference: patent US4985360A (priority 1987, dated 1991)
